{"source": "patent US12453709B2", "about": "“Compositions and methods for treating autism” (priority 2013, dated 2025)", "key": {"[1]": {"test_system": "male patients diagnosed with autism", "experiment": "Study HT 02-121: Vineland Adaptive Behavior Scales, Second Edition (VABS II)", "type": "in vivo, human", "conditions": "Week 4/LOCF", "description": "This clinical study was a randomized double-blind, placebo-controlled two-cohort, 4-week dose-escalation study that incorporated two open-label treatment groups to assess the safety and efficacy of L1-79 100 mg and 200 mg TID in male patients between the ages of […] years of age diagnosed with autism. The first cohort of 20 patients was comprised of three groups of patients: The first group of five patients received open-label L1-79 100 mg TID and underwent PK and EKG assessments. The remaining two groups in this cohort consisted of 15 patients randomized on a 2:1 basis to receive L1-79 100 mg TID or placebo. The PK and safety data from the open-label L1-79 100 mg TID group was submitted to FDA for review and acceptance before the second cohort was enrolled. The second cohort was procedurally identical to the first. The second cohort of 20 patients was comprised of the same three groups of patients but a dose of 200 mg TID was used instead of 100 mg TID. The key inclusion criteria were as follows: (1) males between 13 and 21 years of age, (2) DSM-5 compliant diagnosis of autism spectrum disorder, confirmed by the Autistic Diagnosis Interview Review (ADIR), and by an ADOS-2 score consistent with a diagnosis of autism, (3) must have been stable on no more than one concomitant medication and no planned changes in psychosocial interventions during the study.\nThe primary efficacy endpoint was the determination of the clinical improvement by the investigator as documented by the Clinical Global Impression (CGI) rating scales. Additional efficacy endpoints included: (1) changes from baseline in the Socialization and Communication Domains of the Vineland Adaptive Behavior Scales, Second Edition (VABS II) parent/caregiver rating form, (2) changes from baseline in the ADOS-2 Total Score and subscores, (3) changes in the Social Responsiveness Scale, Second Edition (SRS-2) Total Score and subscales, (4) changes in the ABC-C domains, (5) changes in the Repetitive Behavior Scale-Revised (RBS-R) Total Score and subscales. Given the exploratory design of this study only descriptive statistics were planned.\nIn the preliminary study, all forms were completed at the study site in the presence of the investigator. In Cohort 1 of the present study, the VABS-II, SRS-2, ABC-C and RBS-R were filled out at home by the patient/patient's families prior to treatment visits and returned at treatment visits in order to expedite the execution of the study."}, "[2]": {"test_system": "patients qualified under the DSM-5 definition of autism", "experiment": "Example 4: DSM-V score", "type": "in vivo, human", "set-up": "DSM-V TOTAL / DSM-V social / DSM-V communication / DSM-V relationships / DSM-V behavior: scale not given here", "conditions": "for DSM V relationships / DSM V communication / DSM V social / DSM V behavior / DSM V TOTAL: PT RS; for DSM V relationships: initial 1; for DSM V communication / DSM V social: initial 5; for DSM V TOTAL: initial 21", "description": "α-methyl-DL tyrosine (AMPT) was administered to 3 patients. This group of patients was qualified under the DSM-5 definition of autism and treated. The Aberrant Behavior Checklist-Community (ABC-C), Autism Diagnostic Observation Schedule (ADOS), Conners Parent Rating Scale (CPRS), and General Clinical Impressions scale were used to assess the disease. Videos were taken at each visit."}}}
{"smiles": "CC(N)(Cc1ccc(O)cc1)C(=O)O", "note": "(racemic) [L1-79, α-methyl-DL-tyrosine]", "values": [{"measurement": "VABS II Standardized Communication Score Mean Change from Baseline", "setting": "[1]; DB 100 mg TID", "result": 10.1}, {"measurement": "VABS II Standardized Communication Score Treatment effect versus placebo", "setting": "[1]; DB 100 mg TID", "result": 3.6}, {"measurement": "VABS II Standardized Communication Score change, median", "setting": "[1]; DB 100 mg TID", "result": "−1, 5, 16"}, {"measurement": "VABS II Standardized Socialization Score Mean Change from Baseline", "setting": "[1]; DB 100 mg TID", "result": "−4.2"}, {"measurement": "VABS II Standardized Socialization Score Treatment effect versus placebo", "setting": "[1]; DB 100 mg TID", "result": "−5.0"}, {"measurement": "VABS II Standardized Socialization Score change, median", "setting": "[1]; DB 100 mg TID", "result": "−13, −12, 9"}, {"measurement": "VABS II Standardized Communication Score Mean Change from Baseline", "setting": "[1]; DB 200 mg TID", "result": 2.7}, {"measurement": "VABS II Standardized Communication Score Treatment effect versus placebo", "setting": "[1]; DB 200 mg TID", "result": "−3.8"}, {"measurement": "VABS II Standardized Communication Score change, median", "setting": "[1]; DB 200 mg TID", "result": "0, 1, 3"}, {"measurement": "VABS II Standardized Socialization Score Mean Change from Baseline", "setting": "[1]; DB 200 mg TID", "result": 7.6}, {"measurement": "VABS II Standardized Socialization Score Treatment effect versus placebo", "setting": "[1]; DB 200 mg TID", "result": 6.8}, {"measurement": "VABS II Standardized Socialization Score change, median", "setting": "[1]; DB 200 mg TID", "result": "0, 1, 20"}, {"measurement": "DSM-V social", "setting": "[2]; PT LR, Day 7, initial 9", "result": 5}, {"measurement": "DSM-V communication", "setting": "[2]; PT LR, Day 7, initial 10", "result": 4}, {"measurement": "DSM-V relationships", "setting": "[2]; PT LR, Day 7, initial 11", "result": 4}, {"measurement": "DSM-V behavior", "setting": "[2]; PT LR, Day 7, initial 12", "result": 12}, {"measurement": "DSM-V TOTAL", "setting": "[2]; PT LR, Day 7, initial 42", "result": 27}, {"measurement": "DSM-V social", "setting": "[2]; PT LR, Day 14, initial 9", "result": 3}, {"measurement": "DSM-V communication", "setting": "[2]; PT LR, Day 14, initial 10", "result": 3}, {"measurement": "DSM-V relationships", "setting": "[2]; PT LR, Day 14, initial 11", "result": 3}, {"measurement": "DSM-V behavior", "setting": "[2]; PT LR, Day 14, initial 12", "result": 12}, {"measurement": "DSM-V TOTAL", "setting": "[2]; PT LR, Day 14, initial 42", "result": 21}, {"measurement": "DSM-V social", "setting": "[2]; PT LR, Day 21, initial 9", "result": 2}, {"measurement": "DSM-V communication", "setting": "[2]; PT LR, Day 21, initial 10", "result": 2}, {"measurement": "DSM-V relationships", "setting": "[2]; PT LR, Day 21, initial 11", "result": 2}, {"measurement": "DSM-V behavior", "setting": "[2]; PT LR, Day 21, initial 12", "result": 12}, {"measurement": "DSM-V TOTAL", "setting": "[2]; PT LR, Day 21, initial 42", "result": 18}, {"measurement": "DSM-V social", "setting": "[2]; PT LR, Day 28, initial 9", "result": 2}, {"measurement": "DSM-V communication", "setting": "[2]; PT LR, Day 28, initial 10", "result": 2}, {"measurement": "DSM-V relationships", "setting": "[2]; PT LR, Day 28, initial 11", "result": 2}, {"measurement": "DSM-V behavior", "setting": "[2]; PT LR, Day 28, initial 12", "result": 12}, {"measurement": "DSM-V TOTAL", "setting": "[2]; PT LR, Day 28, initial 42", "result": 18}, {"measurement": "DSM V relationships", "setting": "[2]; Day 7", "result": 0}, {"measurement": "DSM V communication", "setting": "[2]; Day 7", "result": 4}, {"measurement": "DSM V social", "setting": "[2]; Day 7", "result": 3}, {"measurement": "DSM V behavior", "setting": "[2]; Day 7, initial 10", "result": 8}, {"measurement": "DSM V TOTAL", "setting": "[2]; Day 7", "result": 15}, {"measurement": "DSM V relationships", "setting": "[2]; Day 14", "result": 0}, {"measurement": "DSM V communication", "setting": "[2]; Day 14", "result": 1.5}, {"measurement": "DSM V social", "setting": "[2]; Day 14", "result": 1.5}, {"measurement": "DSM V behavior", "setting": "[2]; Day 14, initial 10", "result": 5}, {"measurement": "DSM V TOTAL", "setting": "[2]; Day 14", "result": 8}, {"measurement": "DSM V relationships", "setting": "[2]; Day 21", "result": 0}, {"measurement": "DSM V communication", "setting": "[2]; Day 21", "result": 1.5}, {"measurement": "DSM V social", "setting": "[2]; Day 21", "result": 1}, {"measurement": "DSM V behavior", "setting": "[2]; Day 21, initial 10", "result": 4}, {"measurement": "DSM V TOTAL", "setting": "[2]; Day 21", "result": 6.5}, {"measurement": "DSM V relationships", "setting": "[2]; Day 28", "result": 0}, {"measurement": "DSM V communication", "setting": "[2]; Day 28", "result": 1.5}, {"measurement": "DSM V social", "setting": "[2]; Day 28", "result": 1}, {"measurement": "DSM V behavior", "setting": "[2]; Day 28, initial 10", "result": 3}, {"measurement": "DSM V TOTAL", "setting": "[2]; Day 28", "result": 5.5}, {"measurement": "DSM-V communication", "setting": "[2]; PT WC, Day 7, initial 3", "result": 0}, {"measurement": "DSM-V relationships", "setting": "[2]; PT WC, Day 7, initial 6", "result": 2}, {"measurement": "DSM-V social", "setting": "[2]; PT WC, Day 7, initial 6", "result": 6}, {"measurement": "DSM-V behavior", "setting": "[2]; PT WC, Day 7, initial 11", "result": 9}, {"measurement": "DSM-V TOTAL", "setting": "[2]; PT WC, Day 7, initial 26", "result": 17}, {"measurement": "DSM-V communication", "setting": "[2]; PT WC, Day 14, initial 3", "result": 0}, {"measurement": "DSM-V relationships", "setting": "[2]; PT WC, Day 14, initial 6", "result": 2}, {"measurement": "DSM-V social", "setting": "[2]; PT WC, Day 14, initial 6", "result": 4}, {"measurement": "DSM-V behavior", "setting": "[2]; PT WC, Day 14, initial 11", "result": 8}, {"measurement": "DSM-V TOTAL", "setting": "[2]; PT WC, Day 14, initial 26", "result": 14}, {"measurement": "DSM-V communication", "setting": "[2]; PT WC, Day 21, initial 3", "result": 0}, {"measurement": "DSM-V relationships", "setting": "[2]; PT WC, Day 21, initial 6", "result": 2}, {"measurement": "DSM-V social", "setting": "[2]; PT WC, Day 21, initial 6", "result": 2}, {"measurement": "DSM-V behavior", "setting": "[2]; PT WC, Day 21, initial 11", "result": 8}, {"measurement": "DSM-V TOTAL", "setting": "[2]; PT WC, Day 21, initial 26", "result": 12}, {"measurement": "DSM-V communication", "setting": "[2]; PT WC, Day 28, initial 3", "result": 0}, {"measurement": "DSM-V relationships", "setting": "[2]; PT WC, Day 28, initial 6", "result": 2}, {"measurement": "DSM-V social", "setting": "[2]; PT WC, Day 28, initial 6", "result": 2}, {"measurement": "DSM-V behavior", "setting": "[2]; PT WC, Day 28, initial 11", "result": 7}, {"measurement": "DSM-V TOTAL", "setting": "[2]; PT WC, Day 28, initial 26", "result": 11}]}
